Measurements as given in patent US12157730B2, “Heteroaryl derivative, method for producing same, and pharmaceutical composition comprising same as effective component” (VORONOI INC., priority 2019, dated 2024).

Molecular target: T1, Ba/F3 cell EGFR Exon20 ins NPH (Homo sapiens, UniProt P00533, INS773NPH)
T1 construct: expressed in transfected cells; host or cells: Ba/F3
Test: Ba/F3 cell proliferation suppression, EGFR Exon20 ins NPH
Format: cell-based
Details: GI50 class; Ba/F3 cell line with NPH inserted at Exon20 of EGFR; 72 hours
Description: The following experiment was carried out to evaluate the suppression activity of the compounds according to the present invention against proliferation of Ba/F3 and lung cancer cells which express EGFR mutations.
Of the cancer cell lines expressing the EGFR gene, A549 was cultured after adding 10% FBS (HyClone) to DMEM (Invitrogen), and RPMI-1640 (Invitrogen) with 10% FBS was used for the other cancer cells. For the Ba/F3 cells, RPMI-1640 with 10% FBS and 5 ng/ml IL-3 (R&D Systems) was used. The transduced Ba/F3 cells were cultured by adding 1 ug/ml puromycin (Invitrogen) to the same medium.
24 hours before treatment with the compounds, 3000 to 5000 cells were distributed into each well of a white clear bottom 96 well plate (Corning). The compounds were diluted in dimethylsulfoxide (dilution ratio 3:1; 12 concentrations total) and injected 0.5 ul each for a final concentration of 0.3 nM to 50 um. As for measurement of live cells, 72 hours after treatment with the compounds, a CellTiter-Glo luminescent cell-viability reagent (Promega) was used to store the cells at room temperature for 10 minutes, followed by measurement of luminescence using a reader (SynergyNeo, Biotek). Each test was repeated three times.
The result was calculated as a cell growth ratio (%) compared to a control. The program GraphPad Prism version 5.0 was used to draw the graphs and calculate the GI50 values.

Ba/F3 (NPH) Activity	SMILES
A (GI50 < 50 nM)	C=CC(=O)Nc1cc(Nc2cc(N3OCC[C@@H]3c3cccc(F)c3Cl)ncn2)c(OC)cc1N1CCC(N2CCN(CC)CC2)CC1 [compound 602, N-(5-((6-((R)-3-(2-chloro-3-fluorophenyl)isoxazolidine-2-yl)pyrimidine-4-yl)amino)-2-(4-(4-thylpiperazine-1-yl)piperidine-1-yl)-4-methoxyphenyl) acrylamide]
A (GI50 < 50 nM)	C=CC(=O)Nc1cc(Nc2cc(N3OCC[C@@H]3c3ccc(F)c(Cl)c3)ncn2)c(OC)cc1N1C[C@@H]2CCN(C)[C@@H]2C1 [compound 316, N-(5-((6-((R)-3-(3-chloro-4-fluorophenyl)isoxazolidine-2-yl)pyrimidine-4-yl)amino)-4-methoxy-2-((3aS,6aS)-1-methylhexahydropyrrolo [3,4-b]pyrrole-5(1H)-yl)phenyl)acrylamide]
A (GI50 < 50 nM)	C=CC(=O)Nc1cc(Nc2cc(N3OCC[C@@H]3c3ccc(Cl)cc3F)ncn2)c(OC)cc1N1CC[C@@H](N2CCOCC2)C1 [compound 406, N-(5-((6-((R)-3-(4-chloro-2-fluorophenyl)isoxazolidine-2-yl)pyrimidine-4-yl)amino)-4-methoxy-2-((R)-3-morpholinopyrolidine-1-yl)phenyl)acrylamide]
A (GI50 < 50 nM)	C=CC(=O)Nc1cc(Nc2cc(N3OCC[C@@H]3c3cccc(F)c3F)ncn2)c(OC)cc1N1CCC(N2CCOCC2)CC1 [compound 920, N-(5-((6-((R)-3-(2,3-difluorophenyl)isoxazolidine-2-yl)pyrimidine-4-yl)amino)-4-methoxy-2-(4-morpholinopiperidine-1-yl)phenyl)acrylamide]
A (GI50 < 50 nM)	C=CC(=O)Nc1cc(Nc2cc(N3OCC[C@@H]3c3ccc(F)cc3F)ncn2)c(OC)cc1N1CCC(N2CCN(C3CCCC3)CC2)CC1 [Example 205, N-(2-(4-(4-cyclopentylpiperazine-1-yl)piperidine-1-yl)-5-((6-((R)-3-(2,4-difluorophenyl)isoxazolidine-2-yl)pyrimidine-4-yl)amino)-4-methoxyphenyl) acrylamide]
A (GI50 < 50 nM)	C=CC(=O)Nc1cc(Nc2cc(N3OCC[C@@H]3c3cccc(Cl)c3)ncn2)c(OC)cc1N1CCC(N(C)C)CC1 [compound 361, N-(5-((6-((R)-3-(3-chlorophenyl)isoxazolidine-2-yl)pyrimidine-4-yl)amino)-2-(4-(dimethylamino)piperidine-1-yl)-4-methoxyphenyl) acrylamide]
A (GI50 < 50 nM)	C=CC(=O)Nc1cc(Nc2cc(N3OCC[C@@H]3c3cccc(C)c3F)ncn2)c(OC)cc1N1CCC(N2C[C@H](C)N(C3CC3)C[C@@H]2C)CC1 [Example 123, N-(2-(4-((2S,5S)-4-cyclopropyl-2,5-dimethylpiperazine-1-yl)piperidine-1-yl)-5-((6-((R)-3-(2-fluoro-3-methylphenyl)isoxazolidine-2-yl)pyrimidine-4-yl)amino)-4-methoxyphenyl) acrylamide]
B (50 nM ≤ GI50 < 500 nM)	C=CC(=O)Nc1cc(Nc2cc(N3OCC[C@@H]3c3cccc(Cl)c3Cl)ncn2)c(OC)cc1N1CCC(N(C)CCN(C)C)CC1 [compound 613, N-(5-((6-((R)-3-(2,3-dichlorophenyl)isoxazolidine-2-yl)pyrimidine-4-yl)amino)-2-(4-((2-(dimethylamino)ethyl) (methyl)aino)piperidine-1-yl)-4-methoxyphenyl) acrylamide]
A (GI50 < 50 nM)	C=CC(=O)Nc1cc(Nc2cc(N3OCC[C@@H]3c3cccc(C#N)c3)ncn2)c(OC)cc1N1CCC(N2CCOC[C@H]2C)CC1 [compound 388, N-(5-((6-((R)-3-(3-cyanophenyl)isoxazolidine-2-yl)pyrimidine-4-yl)amino)-4-methoxy-2-(4-((R)-3-methylmorpholino)piperidine-1-yl)phenyl) acrylamide]
A (GI50 < 50 nM)	C=CC(=O)Nc1cc(Nc2cc(N3OCC[C@@H]3c3ccccc3)ncn2)c(OC)cc1N1CCC(N2C[C@@H]3C[C@H]2CN3CC)CC1 [compound 737, N-(2-(4-((1S,4S)-5-ethyl-2,5-diazabicyclo [2.2.1]heptane-2-yl)piperidine-1-yl)-4-methoxy-5-((6-((R)-3-phenylisoxazolidine-2-yl)pyrimidine-4-yl)amino)phenyl) acrylamide]
B (50 nM ≤ GI50 < 500 nM)	C=CC(=O)Nc1cc(Nc2cc(N3OCC[C@@H]3c3cc(F)cc(F)c3)ncn2)c(OC)cc1N1CCO[C@@H](C)C1 [compound 337, N-(5-((6-((R)-3-(3,5-difluorophenyl)isoxazolidine-2-yl)pyrimidine-4-yl)amino)-4-methoxy-2-((S)-2-methylmorpholino)phenyl)acrylamide]
A (GI50 < 50 nM)	C=CC(=O)Nc1cc(Nc2cc(N3OCC[C@@H]3c3cccc(Cl)c3C)ncn2)c(OC)cc1N1CCC(N2CCN(C(C)C)CC2)CC1 [compound 580, N-(5-((6-((R)-3-(3-chloro-2-methylphenyl)isoxazolidine-2-yl)pyrimidine-4-yl)amino)-2-(4-(4-isopropylpiperazine-1-yl)piperidine-1-yl)-4-methoxyphenyl) acrylamide]
C (500 nM ≤ GI50 < 5000 nM)	C=CC(=O)Nc1cc(Nc2cc(N3OCC[C@H]3Cc3ccccc3)ncn2)c(OC)cc1N1CCN(CCN(C)C)CC1 [compound 976, N-(5-((6-((R)-3-benzylisoxazolidine-2-yl)pyrimidine-4-yl)amino)-2-(4-(2-(dimethylamino)ethyl)piperazine-1-yl)-4-methoxyphenyl) acrylamide]
A (GI50 < 50 nM)	C=CC(=O)Nc1cc(Nc2cc(N3OCC[C@@H]3c3cccc(C#N)c3)ncn2)c(OC)cc1N1CCC(N2CCN(C3CCC3)CC2)CC1 [Example 183, N-(5-((6-((R)-3-(3-cyanophenyl)isoxazolidine-2-yl)pyrimidine-4-yl)amino)-2-(4-(4-cyclobutylpiperazine-1-yl)piperidine-1-yl)-4-methoxyphenyl) acrylamide]
B (50 nM ≤ GI50 < 500 nM)	C=CC(=O)Nc1cc(Nc2cc(N3OCC[C@@H]3c3ccc(Cl)cc3)ncn2)c(OC)cc1N1CCC(N2CCC(N(C)C)CC2)CC1 [compound 808, N-(5-((6-((R)-3-(4-chlorophenyl)isoxazolidine-2-yl)pyrimidine-4-yl)amino)-2-(4-(dimethylamino)-[1,4'-bipiperidine]-1'-yl)-4-methoxyphenyl) acrylamide]
A (GI50 < 50 nM)	C=CC(=O)Nc1cc(Nc2cc(N3OCC[C@@H]3c3ccccc3)ncn2)c(OC)cc1N1CCC(N2CCC(N(C)C)CC2)CC1 [compound 740, N-(2-(4-(dimethylamino)-[1,4'-bipiperidine]-1'-yl)-4-methoxy-5-((6-((R)-3-phenylisoxazolidine-2-yl)pyrimidine-4-yl)amino)phenyl)acrylamide]
A (GI50 < 50 nM)	C=CC(=O)Nc1cc(Nc2cc(N3OCC[C@@H]3c3cc(F)cc(F)c3)ncn2)c(F)cc1N1CCC(N2CCN(C3CC3)CC2)CC1 [compound 533, N-(2-(4-(4-cyclopropylpiperazine-1-yl)piperidine-1-yl)-5-((6-((R)-3-(3,5-difluorophenyl)isoxazolidine-2-yl)pyrimidine-4-yl)amino)-4-fluorophenyl) acrylamide]
A (GI50 < 50 nM)	C=CC(=O)Nc1cc(Nc2cc(N3OCC[C@@H]3c3cccc(Cl)c3)ncn2)c(OC)cc1N1CCOCC1 [compound 467, N-(5-((6-((R)-3-(3-chlorophenyl)isoxazolidine-2-yl)pyrimidine-4-yl)amino)-4-methoxy-2-morpholinophenyl) acrylamide]
A (GI50 < 50 nM)	C=CC(=O)Nc1cc(Nc2cc(N3OCC[C@@H]3c3ccc(F)c(F)c3F)ncn2)c(OC)cc1N1CCC(N2CCN(C3CC3)CC2)CC1 [Example 170, N-(2-(4-(4-cyclopropylpiperazine-1-yl)piperidine-1-yl)-4-methoxy-5-((6-((R)-3-(2,3,4-trifluorophenyl)isoxazolidine-2-yl)pyrimidine-4-yl)amino)phenyl)acrylamide]

SMILES	Ba/F3 (NPH) Activity
C=CC(=O)Nc1cc(Nc2cc(N3OCC[C@@H]3c3cccc(Cl)c3C)ncn2)c(OC)cc1N1CCC(N2CC3CCC(C2)N3C2CC2)CC1 [Example 154, N-(5-((6-((R)-3-(3-chloro-2-methylphenyl)isoxazolidine-2-yl)pyrimidine-4-yl)amino)-2-(4-(8-cyclopropyl-3,8-diazabicyclo [3.2.1]octan-3-yl)piperidine-1-yl)-4-methoxyphenyl) acrylamide]	A (GI50 < 50 nM)
C=CC(=O)Nc1cc(Nc2cc(N3OCC[C@@H]3c3cccc(F)c3Cl)ncn2)c(OC)cc1N1CCC(N2CC3CCC(C2)N3C2CC2)CC1 [Example 142, N-(5-((6-((R)-3-(2-chloro-3-fluorophenyl)isoxazolidine-2-yl)pyrimidine-4-yl)amino)-2-(4-(8-cyclopropyl-3,8-diazabicyclo[3.2.1]octan-3-yl)piperidine-1-yl)-4-methoxyphenyl) acrylamide]	A (GI50 < 50 nM)
